Assay results as given in US12589101B2, “Cyclodextrin protein drug conjugates” (Regeneron Pharmaceuticals, Inc., priority 2017, dated 2026).
Converted amounts (≈) assume the structure as drawn.

How the values were obtained:
[1] = Solubility of linker-payloads (LC-MS standard curve, saturated solution); type: physicochemical; conditions: aqueous with cosolvent or surfactant or cyclodextrin, thermodynamic from solid, in 10% DMSO/H2O; read-out: Solubility in other solvents
[2] = tested on: T1, LXR; experiment: THP1/LXR-Luc/Her2 bioassay (LXR activation, luciferase); type: cell-based; conditions: THP1/LXR-Luc/Her2 cells, 48-hour incubation
T1 construct: other: THP1/LXR-Luc/Her2 cells, 48-hour incubation, relative to free payload 1d; other: THP1/LXR-Luc/Her2 cells, 48-hour incubation; other: THP1/Her2/LXR-Luc cells; other: differentiated THP1/LXR-Luc cells, 48 hours; other: THP1/LXR-Luc cells, PMA
Procedure: To test the comparability of ADCs with and without CDs containing LXR agonists anti-HER2 Ab ADC with and without CD were tested for their ability to activate LXR in a THP1/LXR-Luc/Her2 bioassay. In the assay, either THP1/LXR-Luc cells or THP1/LXR-Luc/Her2 cells were seeded onto white 96 well plates at 30,000 cells/well in media containing RPMI supplemented with 10% FBS and pencillin/streptomycinin (complete media). Subsequently 3-fold serial dilutions of antibody drug conjugates, unconjugated antibodies, or free payloads were added to the cells at final concentration ranging from 100 nM to 0.01 nM. After a 48-hour incubation, luciferase activity was determined after the addition of One-Glo™ reagent (Promega, E6130) to each well of cells. Relative light units (RLUs) were measured on a Victor luminometer (PerkinElmer) and the EC50 values were determined using a four-parameter logistic equation over a 10-point dose response curve (GraphPad Prism).

EC50 [2]	Maximal activation ([2]; relative to free payload 1d)	Structure (SMILES)	solubility at 10 min [1]
		CCCC1O[C@@H]2C[C@H]3[C@@H]4CCC5=CC(=O)C=C[C@]5(C)[C@H]4[C@@H](O)C[C@]3(C)[C@]2(C(=O)COc2ccc(NC(=O)[C@H](C)NC(=O)[C@@H](NC(=O)[C@@H](CCCCNC(=O)COC3CCCCCc4c3nnn4CC3OC4OC5C(CO)OC(OC6C(CO)OC(OC7C(CO)OC(OC8C(CO)OC(OC9C(CO)OC(OC3C(O)C4O)C(O)C9O)C(O)C8O)C(O)C7O)C(O)C6O)C(O)C5O)NC(=O)CCOCCOCCOCCOCCNC(=O)CCC(=O)N3Cc4ccccc4C#Cc4ccccc43)C(C)C)cc2)O1 (stereo partly drawn) [Ex46]	0.1 mg/mL (≈ 39.7 µM)
2.8 nM	Full activation	C[C@]1(C(=O)NC(=O)[C@@]2(C)CCC[C@]3(C)c4cc(O)ccc4CC[C@@H]23)CCC[C@]2(C)c3cc(N)ccc3CC[C@@H]12 [Example 1d, (1S,4aS,10aR)-N-[(1S,4aS,10aR)-6-Amino-1,4a-dimethyl-1,2,3,4,4a,9,10,10a-octahydrophenanthrene-1-carbonyl]-6-hydroxy-1,4a-dimethyl-1,2,3,4,4a,9,10,10a-octahydrophenanthrene-1-carboxamide]	
